# Experimental data as given in US20240270748A1 (Merck Patent GmbH, priority 2021, published 2024).
# Experiments:
# NCI-H226 cells = experiment: Viability assay in NCI-H226 (Yap-dependent) cells, CyQuant; type: cell-based, human
# Procedure, shortened: (§1)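 Seeded cells were dosed 24 h later in duplicate (10-point, 1:3 dilutions, top 30 μM final, 0.3% DMSO) and incubated 96 h at 37 °C. Viability was read with CyQUANT DNA dye after 1 h, fluorescence bottom read. NCI-H226 in RPMI 1640 medium; SW620 YAP/TAZ CRISPR knockout in DMEM/F-12 medium.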
# SW620 Yap KO cells = experiment: Viability assay in SW620 Yap KO (Yap independent) cells, CyQuant; type: cell-based
# Procedure, shortened: as §1
# YAP-TEAD interaction = experiment: SK-HEP-1 reporter assay (8xTEAD responsive elements driving NanoLuc luciferase); type: cell-based
# Procedure, shortened: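 SK-HEP-1 cells stably carrying 8×TEAD-driven NanoLuc treated in duplicate, 10-point dose from 30 μM final, 0.3% DMSO, 24 h at 37° C. Luminescence after NanoGlo lysis/substrate addition; IC50 calculated from dose response.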
# [1] = Homo sapiens, NCI-H226, 96 h, class symbols
# [2] = Homo sapiens, SW-620, 96 h, n.d. = value not detectable below threshold given in parentheses, ND = not determinable within the entire range
# [3] = Homo sapiens, SK-HEP1, SK-HEP-1 reporter assay, class symbols
# [4] = Homo sapiens, SW-620, 96 h, class symbols
# [5] = Homo sapiens, SW-620, 96 h, n.d. = value not detectable below threshold given in parentheses
# [6] = Homo sapiens, SK-HEP1, SK-HEP-1 reporter assay, n.d. = value not detectable below threshold given in parentheses
# [7] = Homo sapiens, SK-HEP1, SK-HEP-1 reporter assay, n.d. = value not detectable below threshold given in parentheses, ND = not determinable within the entire range
Structure (SMILES),IC50 (NCI-H226 cells; [1]) [nM],IC50 (SW620 Yap KO cells; [2]) [nM],IC50 (YAP-TEAD interaction; [3]) [nM],IC50 (SW620 Yap KO cells; [5]) [nM],also measured
"Cn1cc2c3cc(S(=O)(=O)NC4CC4)ccc3n(-c3ccc(C(F)(F)F)cc3)c2n1 [Example C72, N-cyclopropyl-2-methyl-8-[4-(trifluoromethyl)phenyl]-2H,8H-pyrazolo[3,4-b]indole-5-sulfonamide]",,> 3200,1 to 10,,"IC50 (NCI-H226 cells; Homo sapiens, NCI-H226, 96 h, n.d. = value not detectable below threshold given in parentheses): > 3200 nM"
"Cn1cc2c3cc(C(=O)N=[S@@](=O)(CCO)Cc4ccccn4)ccc3n(-c3ccc(C(F)(F)F)cc3)c2n1 (single isomer, unassigned) [Example C177]",100 to 1000,,,> 3000,IC50 (YAP-TEAD interaction; [6]): > 6500 nM
"Cn1cc2c3cc(S(=O)(=O)NCCCO)ccc3n(-c3ccc(C(F)(F)F)cc3)c2n1 [Example C85, N-(3-hydroxypropyl)-2-methyl-8-[4-(trifluoromethyl)phenyl]-2H,8H-pyrazolo[3,4-b]indole-5-sulfonamide]",1000 to 10000,> 30000,,,IC50 (YAP-TEAD interaction; [7]): > 30000 nM
"Cn1cnc2c1c1cc(C(=O)N[C@@](C)(CO)c3ccccn3)ccc1n2-c1ccc(C(F)(F)F)cc1 [Example C12, N-[(2R)-1-hydroxy-2-(pyridin-2-yl)propan-2-yl]-1-methyl-4-[4-(trifluoromethyl)phenyl]-1H,4H-imidazo [4,5-b]indole-7-carboxamide]",1 to 100,> 3000,1 to 10,,
"C[C@@H](CO)C(=O)Nc1ccc2c(c1)c1cn(C)nc1n2-c1ccc(C(F)(F)F)cc1 [Example C153, (2S)-3-hydroxy-2-methyl-N-{2-methyl-8-[4-(trifluoromethyl)phenyl]-2H,8H-pyrazolo[3,4-b]indol-5-yl}propanamide]",1 to 100,> 30000,10 to 100,,
"C[C@@H](NC(=O)c1ccc2c(c1)c1nn(C)nc1n2-c1ccc(C(F)(F)F)cc1)c1ccccn1 [Example C176, 2-methyl-N-[(1R)-1-(pyridin-2-yl)ethyl]-4-[4-(trifluoromethyl)phenyl]-2H,4H-[1,2,3]triazolo[4,5-b]indole-7-carboxamide]",100 to 1000,,10 to 100,> 30000,
"Cn1cc2c3cc(C(=O)O)ccc3n(-c3ccc(C(F)(F)F)cn3)c2n1 [Example C126, 2-methyl-8-[5-(trifluoromethyl)pyridin-2-yl]-2H,8H-pyrazolo[3,4-b]indole-5-carboxylic acid]",100 to 1000,> 3000,10 to 100,,
"Cc1c2c3cc(C(=O)NCc4ccncc4)ccc3n(-c3ccc(C(F)(F)F)cc3)c2nn1C [Example C98, 2,3-dimethyl-N-[(pyridin-4-yl)methyl]-8-[4-(trifluoromethyl)phenyl]-2H,8H-pyrazolo[3,4-b]indole-5-carboxamide]",1 to 100,> 3200,10 to 100,,
"Cn1cc2c3cc(C(=O)NCc4ccccc4)ccc3n(-c3ccc(C(F)(F)F)cc3)c2n1 [Example C56, N-benzyl-2-methyl-8-[4-(trifluoromethyl)phenyl]-2H,8H-pyrazolo[3,4-b]indole-5-carboxamide]",1 to 100,> 30000,10 to 100,,
"C[C@H](CO)NC(=O)c1ccc2c(c1)c1cn(C)nc1n2-c1ccc(C(F)(F)F)c(F)c1 [Example C167, 8-[3-fluoro-4-(trifluoromethyl)phenyl]-N-[(2R)-1-hydroxypropan-2-yl]-2-methyl-2H,8H-pyrazolo[3,4-b]indole-5-carboxamide]",1 to 100,,10 to 100,> 30000,
"COCCC(CO)NC(=O)c1ccc2c(c1)c1cn(C)nc1n2-c1ccc(C(F)(F)F)cc1 (single isomer, unassigned) [Example C245]",1 to 100,,,> 30000,"IC50 (YAP-TEAD interaction; SK-HEP-1 reporter assay, class symbols): 10 to 100 nM"
"Cn1cc2c3cc(C(=O)NC(CO)c4ccccn4)ccc3n(-c3ccc(C(F)(F)F)nc3)c2n1 (single isomer, unassigned) [Example C124]",,,,,"IC50 (NCI-H226 cells; 96 h, class symbols): 1000 to 10000 nM; IC50 (SW620 Yap KO cells; 96 h, n.d. = value not detectable below threshold given in parentheses, ND = not determinable within the entire range): > 30000 nM; IC50 (YAP-TEAD interaction; [7]): > 30000 nM"
"Cn1nc2c3cc(C(=O)N=[S@@](=O)(CCCO)Cc4ccccn4)ccc3n(-c3ccc(C(F)(F)F)cc3)c2n1 (single isomer, unassigned) [Example C237]",1 to 100,,,> 3000,IC50 (YAP-TEAD interaction; [6]): > 3000 nM
"Cn1nc2c3cc(C4CC(Cl)=NO4)ccc3n(-c3ccc(C(F)(F)F)cc3)c2n1 (stereo not drawn) [Example C18, 3-chloro-5-{2-methyl-4-[4-(trifluoromethyl)phenyl]-2H,4H-[1,2,3]triazolo[4,5-b]indol-7-yl}-4,5-dihydro-1,2-oxazole]",1 to 100,> 30000,10 to 100,,
"Cn1cc2c3cc(C(=O)N[C@@H](CCO)c4ccccn4)ccc3n(-c3ccc(C(F)(F)F)cc3)c2n1 (single isomer, unassigned) [Example C240]",1 to 100,,10 to 100,> 3000,
"Cc1snc2c1c1cc(C(=O)NCc3ccccn3)ccc1n2-c1ccc(C(F)(F)F)cc1 [Example C42, 3-methyl-N-[(pyridin-2-yl)methyl]-8-[4-(trifluoromethyl)phenyl]-8H-[1,2]thiazolo[3,4-b]indole-5-carboxamide]",1 to 100,> 30000,10 to 100,,
"C[C@H](NC(=O)c1ccc2c(c1)c1nn(C)nc1n2-c1ccc(C(F)(F)F)cc1)c1ccccn1 [Example C184, 2-methyl-N-[(1S)-1-(pyridin-2-yl)ethyl]-4-[4-(trifluoromethyl)phenyl]-2H,4H-[1,2,3]triazolo[4,5-b]indole-7-carboxamide]",1 to 100,,10 to 100,> 30000,

# Further lines, with some results ahead:
IC50 (NCI-H226 cells; [1]) [nM],IC50 (SW620 Yap KO cells; [2]) [nM],IC50 (YAP-TEAD interaction; [3]) [nM],IC50 (SW620 Yap KO cells; [5]) [nM],Structure (SMILES),also measured
1 to 100,> 3000,10 to 100,,"Cn1nc2c3cc(C(=O)NC[C@H](O)C(F)(F)F)ccc3n(-c3ccc(C(F)(F)F)cc3)c2n1 [Example C159, 2-methyl-N-[(2S)-3,3,3-trifluoro-2-hydroxypropyl]-4-[4-(trifluoromethyl)phenyl]-2H,4H-[1,2,3]triazolo[4,5-b]indole-7-carboxamide]",
1 to 100,> 3200,10 to 100,,"CC[C@H](CO)NC(=O)c1ccc2c(c1)c1c(C)snc1n2-c1ccc(C(F)(F)F)cc1 [Example C77, N-[(2R)-1-hydroxybutan-2-yl]-3-methyl-8-[4-(trifluoromethyl)phenyl]-8H-[1,2]thiazolo[3,4-b]indole-5-carboxamide]",
1 to 100,,10 to 100,,"Cc1c2c3cc(C(=O)N[C@@H](CO)c4ccccn4)ccc3n(-c3ccc(C(F)(F)F)cc3)c2nn1C [Example C99, N-[(1R)-2-hydroxy-1-(pyridin-2-yl)ethyl]-2,3-dimethyl-8-[4-(trifluoromethyl)phenyl]-2H,8H-pyrazolo[3,4-b]indole-5-carboxamide]",IC50 (SW620 Yap KO cells; [4]): 10000 to 30000 nM
1 to 100,,10 to 100,,"Cn1cc2c3cc(C(=O)N[C@@H](CO)c4ccccn4)ccc3n(-c3ccc(C(F)(F)F)cn3)c2n1 [Example C150, N-[(1R)-2-hydroxy-1-(pyridin-2-yl)ethyl]-2-methyl-8-[5-(trifluoromethyl)pyridin-2-yl]-2H,8H-pyrazolo[3,4-b]indole-5-carboxamide]",IC50 (SW620 Yap KO cells; [4]): 10000 to 30000 nM
1 to 100,> 30000,10 to 100,,"Cn1cnc2c1c1cc(C(=O)N[C@](C)(CO)c3ccccn3)ccc1n2-c1ccc(C(F)(F)F)cc1 [Example C2, N-[(2S)-1-hydroxy-2-(pyridin-2-yl)propan-2-yl]-1-methyl-4-[4-(trifluoromethyl)phenyl]-1H,4H-imidazo [4,5-b]indole-7-carboxamide]",
1 to 100,> 30000,10 to 100,,"C[C@H](CO)NC(=O)c1ccc2c(c1)c1cn(C)nc1n2-c1ccc(C(F)(F)F)cn1 [Example C148, N-[(2R)-1-hydroxypropan-2-yl]-2-methyl-8-[5-(trifluoromethyl)pyridin-2-yl]-2H,8H-pyrazolo[3,4-b]indole-5-carboxamide]",
1 to 100,,10 to 100,> 3000,"C[C@H](NC(=O)c1ccc2c(c1)c1nn(C)nc1n2-c1ccc(C(F)(F)F)cc1)c1ccncc1 [Example C185, 2-methyl-N-[(1S)-1-(pyridin-4-yl)ethyl]-4-[4-(trifluoromethyl)phenyl]-2H,4H-[1,2,3]triazolo[4,5-b]indole-7-carboxamide]",
1 to 100,,10 to 100,> 3000,"Cc1cc(C(CO)NC(=O)c2ccc3c(c2)c2nn(C)nc2n3-c2ccc(C(F)(F)F)cc2)ccn1 (stereo not drawn) [Example C220, N-[2-hydroxy-1-(2-methylpyridin-4-yl)ethyl]-2-methyl-4-[4-(trifluoromethyl)phenyl]-2H,4H-[1,2,3]triazolo[4,5-b]indole-7-carboxamide]",
1 to 100,,10 to 100,> 30000,"Cn1cc2c3cc(C(=O)NC(CCO)c4ccccn4)ccc3n(-c3ccc(C(F)(F)F)cc3)c2n1 (stereo not drawn) [Example C225, N-[3-hydroxy-1-(pyridin-2-yl)propyl]-2-methyl-8-[4-(trifluoromethyl)phenyl]-2H,8H-pyrazolo[3,4-b]indole-5-carboxamide]",
1 to 100,,,,"Cn1cc2c3cc(C(=O)N=[S@@](=O)(CCO)Cc4ccncc4)ccc3n(-c3ccc(C(F)(F)F)cc3)c2n1 (single isomer, unassigned) [Example C254]",IC50 (SW620 Yap KO cells; [4]): 1000 to 10000 nM; IC50 (YAP-TEAD interaction; [6]): > 300 nM
